What was measured:
human TLR7 = target: T1, human TLR7 (Homo sapiens, UniProt Q9NYK1); assay: TLR7 inhibition reporter assay (HEK-Blue cells, SEAP reporter, gardiquimod stimulation); assay type: cell-based; conditions: HEK-Blue cells overexpressing human TLR7, gardiquimod 7.5 μM
T1 construct: host or cells: HEK-Blue cells
T1 sequence (Q9NYK1 27-1049): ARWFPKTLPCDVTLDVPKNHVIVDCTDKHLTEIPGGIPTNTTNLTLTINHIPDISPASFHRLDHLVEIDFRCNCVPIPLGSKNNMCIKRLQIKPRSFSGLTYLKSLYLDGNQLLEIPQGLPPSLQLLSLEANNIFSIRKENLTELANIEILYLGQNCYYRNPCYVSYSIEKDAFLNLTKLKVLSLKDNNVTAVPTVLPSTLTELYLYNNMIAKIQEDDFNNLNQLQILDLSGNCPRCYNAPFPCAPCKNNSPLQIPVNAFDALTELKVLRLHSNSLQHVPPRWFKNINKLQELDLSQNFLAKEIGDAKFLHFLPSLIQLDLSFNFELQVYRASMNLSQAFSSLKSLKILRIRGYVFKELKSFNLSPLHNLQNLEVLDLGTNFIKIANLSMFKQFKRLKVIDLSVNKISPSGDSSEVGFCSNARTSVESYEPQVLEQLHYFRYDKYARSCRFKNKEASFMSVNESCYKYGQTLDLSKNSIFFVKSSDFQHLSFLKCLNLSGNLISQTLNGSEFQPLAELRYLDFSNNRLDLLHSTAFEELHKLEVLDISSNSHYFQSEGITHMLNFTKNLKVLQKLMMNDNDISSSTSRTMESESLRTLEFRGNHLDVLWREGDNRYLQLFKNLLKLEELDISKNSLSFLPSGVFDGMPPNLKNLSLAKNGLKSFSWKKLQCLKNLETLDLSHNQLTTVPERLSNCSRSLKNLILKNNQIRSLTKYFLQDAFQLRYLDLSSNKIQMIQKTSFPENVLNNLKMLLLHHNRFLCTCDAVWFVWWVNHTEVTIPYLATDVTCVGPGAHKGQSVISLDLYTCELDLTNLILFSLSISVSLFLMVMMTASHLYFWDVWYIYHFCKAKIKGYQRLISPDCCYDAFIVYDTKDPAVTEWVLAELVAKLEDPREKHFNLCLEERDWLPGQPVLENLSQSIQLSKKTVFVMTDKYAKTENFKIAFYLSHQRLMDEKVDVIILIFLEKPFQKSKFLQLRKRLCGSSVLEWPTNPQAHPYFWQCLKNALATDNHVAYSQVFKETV
Procedure, shortened: (§1)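 HEK-Blue reporter cells (15,000/well TLR7, 20,000 TLR8) exposed to compound over 0.05 nM–50 μM, agonist-stimulated (R848 for TLR8, gardiquimod for TLR7), 22 h at 37 °C, 5% CO2. SEAP read with HEK-Blue Detection; % inhibition relative to agonist-plus-DMSO and known-inhibitor controls.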

human TLR8 = target: T2, human TLR8 (Homo sapiens, UniProt Q9NR97); assay: TLR8 inhibition reporter assay (HEK-Blue cells, SEAP reporter, R848 stimulation); assay type: cell-based; conditions: HEK-Blue cells overexpressing human TLR8, R848 15.9 μM
T2 construct: host or cells: HEK-Blue cells
T2 sequence (Q9NR97 27-1041): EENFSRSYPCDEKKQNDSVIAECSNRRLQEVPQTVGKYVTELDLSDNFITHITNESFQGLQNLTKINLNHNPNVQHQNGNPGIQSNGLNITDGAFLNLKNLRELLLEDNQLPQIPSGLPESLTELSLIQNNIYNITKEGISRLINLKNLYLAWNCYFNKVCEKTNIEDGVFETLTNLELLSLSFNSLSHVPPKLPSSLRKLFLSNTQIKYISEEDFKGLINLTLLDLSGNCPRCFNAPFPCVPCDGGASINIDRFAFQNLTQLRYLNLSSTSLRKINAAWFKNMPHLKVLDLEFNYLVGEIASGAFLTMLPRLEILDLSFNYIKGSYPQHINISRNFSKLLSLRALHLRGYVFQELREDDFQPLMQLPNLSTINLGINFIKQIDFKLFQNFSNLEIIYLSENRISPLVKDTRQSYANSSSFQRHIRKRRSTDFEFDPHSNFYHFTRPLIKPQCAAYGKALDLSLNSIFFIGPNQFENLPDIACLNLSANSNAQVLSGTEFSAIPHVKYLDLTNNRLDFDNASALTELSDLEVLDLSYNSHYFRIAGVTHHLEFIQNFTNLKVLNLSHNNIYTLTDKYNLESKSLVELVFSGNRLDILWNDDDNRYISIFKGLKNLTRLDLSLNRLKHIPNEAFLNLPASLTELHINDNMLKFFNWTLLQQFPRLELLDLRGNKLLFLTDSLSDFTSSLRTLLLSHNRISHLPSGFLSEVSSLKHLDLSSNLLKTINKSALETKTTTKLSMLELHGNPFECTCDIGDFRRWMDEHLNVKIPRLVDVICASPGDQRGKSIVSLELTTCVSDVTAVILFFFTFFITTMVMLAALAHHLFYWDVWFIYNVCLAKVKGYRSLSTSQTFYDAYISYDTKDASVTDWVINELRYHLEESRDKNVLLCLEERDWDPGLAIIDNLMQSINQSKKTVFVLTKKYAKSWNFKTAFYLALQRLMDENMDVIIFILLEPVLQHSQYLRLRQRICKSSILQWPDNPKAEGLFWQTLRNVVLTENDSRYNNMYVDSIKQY
Procedure, shortened: as §1

SMILES	IC50 (human TLR7)	IC50 (human TLR8)
COc1ccc(-c2[nH]c3ccc(C4CCN(C(=O)CN5CCOCC5)CC4)cc3c2C(C)C)cc1OC [Example 223, 1-(4-(2-(3,4-dimethoxyphenyl)-3-isopropyl-1H-indol-5-yl)piperidin-1-yl)-2-morpholinoethan-1-one]	48 nM	98 nM
COc1ccc(-c2[nH]c3ccc(C4CCN(C(=O)C[C@H](C)N)CC4)cc3c2C(C)C)cc1OC [Example 253, (S)-3-amino-1-(4-(2-(3,4-dimethoxyphenyl)-3-isopropyl-1H-indol-5-yl)piperidin-1-yl)butan-1-one]	10 nM	19 nM
COc1ccc(-c2[nH]c3ccc(C4CCN(Cc5nccn5C)CC4)cc3c2C(C)C)cc1OC [Example 262, 2-(3,4-dimethoxyphenyl)-3-isopropyl-5-(1-((1-methyl-1H-imidazol-2-yl)methyl)piperidin-4-yl)-1H-indole]	61 nM	23 nM
COc1ccc(-c2[nH]c3ccc(C4CCN(C(=O)CNCC(N)=O)CC4)cc3c2C(C)C)cc1OC [Example 228, 2-((2-(4-(2-(3,4-dimethoxyphenyl)-3-isopropyl-1H-indol-5-yl)piperidin-1-yl)-2-oxoethyl)amino)acetamide]	46 nM	118 nM
CCN(CC)C(=O)C1CCCN(CC(=O)N2CCC(c3ccc4[nH]c(-c5ccc(OC)c(OC)c5)c(C(C)C)c4c3)CC2)C1 (stereo not drawn) [Example 248, 1-(2-(4-(2-(3,4-dimethoxyphenyl)-3-isopropyl-1H-indol-5-yl)piperidin-1-yl)-2-oxoethyl)-N,N-diethylpiperidine-3-carboxamide]	33 nM	22 nM
COc1ccc(-c2[nH]c3ccc(C4CCN(C(=O)CN5CCC(N(C)C)CC5)CC4)cc3c2C(C)C)cc1OC [Example 244, 1-(4-(2-(3,4-dimethoxyphenyl)-3-isopropyl-1H-indol-5-yl)piperidin-1-yl)-2-(4-(dimethylamino)piperidin-1-yl)ethan-1-one]	6 nM	16 nM
COc1ccc(-c2[nH]c3ccc(C4CCN(C(=O)CN[C@H](CO)CC(C)C)CC4)cc3c2C(C)C)cc1OC [Example 231, (S)-1-(4-(2-(3,4-dimethoxyphenyl)-3-isopropyl-1H-indol-5-yl)piperidin-1-yl)-2-((1-hydroxy-4-methylpentan-2-yl)amino)ethan-1-one]	96 nM	63 nM
COc1ccc(-c2[nH]c3ccc(C4CCN(C(=O)CNCCOCCO)CC4)cc3c2C(C)C)cc1OC [Example 230, 1-(4-(2-(3,4-dimethoxyphenyl)-3-isopropyl-1H-indol-5-yl)piperidin-1-yl)-2-((2-(2-hydroxyethoxy)ethyl)amino)ethan-1-one]	19 nM	18 nM
COc1ccc(-c2[nH]c3ccc(C4CCN(C(=O)CN(C)CCO)CC4)cc3c2C(C)C)cc1OC [Example 242, 1-(4-(2-(3,4-dimethoxyphenyl)-3-isopropyl-1H-indol-5-yl)piperidin-1-yl)-2-((2-hydroxyethyl)(methyl)amino)ethan-1-one]	23 nM	14 nM

Further lines, results first:

IC50 (human TLR7)	IC50 (human TLR8)	SMILES
48 nM	20 nM	COc1ccc(-c2[nH]c3ccc(C4CCN(Cc5cnc(C)[nH]5)CC4)cc3c2C(C)C)cc1OC [Example 266, 2-(3,4-dimethoxyphenyl)-3-isopropyl-5-(1-((2-methyl-1H-imidazol-5-yl)methyl)piperidin-4-yl)-1H-indole]
290 nM	488 nM	COc1ccc(-c2[nH]c3ccc(C4CCN(C(=O)CN5CCC[C@@H](C(=O)N6CC7CNCC7C6)C5)CC4)cc3c2C(C)C)cc1OC (stereo partly drawn) [Example 310, 1-(4-(2-(3,4-dimethoxyphenyl)-3-isopropyl-1H-indol-5-yl)piperidin-1-yl)-2-((3R)-3-(octahydropyrrolo[3,4-c]pyrrole-2-carbonyl)piperidin-1-yl) ethan-1-one]
83 nM	37 nM	CCN(CC)C(=O)C1CCCN(C(=O)CN2CCC(c3ccc4[nH]c(-c5ccc(OC)c(OC)c5)c(C(C)C)c4c3)CC2)C1 (stereo not drawn) [Example 272, 1-(2-(4-(2-(3,4-dimethoxyphenyl)-3-isopropyl-1H-indol-5-yl)piperidin-1-yl)acetyl)-N,N-diethylpiperidine-3-carboxamide]
17 nM	20 nM	COc1ccc(-c2[nH]c3ccc(C4CCN(C(=O)CN5CCCC(C(=O)NC6CCN(C(C)C)CC6)C5)CC4)cc3c2C(C)C)cc1OC (single isomer, unassigned) [Example 281, 1-(2-(4-(2-(3,4-dimethoxyphenyl)-3-isopropyl-1H-indol-5-yl)piperidin-1-yl)-2-oxoethyl)-N-(1-isopropylpiperidin-4-yl)piperidine-3-carboxamide]
204 nM	128 nM	COc1ccc(-c2[nH]c3ccc(C4CCN(C(=O)CN5CCC[C@H](C(=O)N6CC7CNCC7C6)C5)CC4)cc3c2C(C)C)cc1OC (stereo partly drawn) [Example 299, 1-(4-(2-(3,4-dimethoxyphenyl)-3-isopropyl-1H-indol-5-yl)piperidin-1-yl)-2-((3 S)-3-(octahydropyrrolo[3,4-c]pyrrole-2-carbonyl)piperidin-1-yl)ethan-1-one]
85 nM	70 nM	COc1ccc(-c2[nH]c3ccc(C4CCN(C(=O)CN5CCC[C@H](C(=O)N6C(C)CCC6C)C5)CC4)cc3c2C(C)C)cc1OC (stereo partly drawn) [Example 300, 1-(4-(2-(3,4-dimethoxyphenyl)-3-isopropyl-1H-indol-5-yl)piperidin-1-yl)-2-((3S)-3-(2,5-dimethylpyrrolidine-1-carbonyl)piperidin-1-yl)ethan-1-one]
22 nM	22 nM	COc1ccc(-c2[nH]c3ccc(C4CCN(C(=O)CN5CCC[C@H](C(=O)N6CCCC(O)C6)C5)CC4)cc3c2C(C)C)cc1OC (stereo partly drawn) [Example 292, 1-(4-(2-(3,4-dimethoxyphenyl)-3-isopropyl-1H-indol-5-yl)piperidin-1-yl)-2-((3S)-3-(3-hydroxypiperidine-1-carbonyl)piperidin-1-yl)ethan-1-one]
52 nM	38 nM	COc1ccc(-c2[nH]c3ccc(C4CCN(C(=O)CN5CCC[C@@H](C(=O)N6CCN(CCN7CCCC7)CC6)C5)CC4)cc3c2C(C)C)cc1OC [Example 307, (R)-1-(4-(2-(3,4-dimethoxyphenyl)-3-isopropyl-1H-indol-5-yl)piperidin-1-yl)-2-(3-(4-(2-(pyrrolidin-1-yl)ethyl)piperazine-1-carbonyl)piperidin-1-yl)ethan-1-one]
44 nM	32 nM	COc1ccc(-c2[nH]c3ccc(C4CCN(C(=O)CN5CCC[C@H](C(=O)N(C)C(C)C)C5)CC4)cc3c2C(C)C)cc1OC [Example 288, (S)-1-(2-(4-(2-(3,4-dimethoxyphenyl)-3-isopropyl-1H-indol-5-yl)piperidin-1-yl)-2-oxoethyl)-N-isopropyl-N-methylpiperidine-3-carboxamide]

Source: patent publication US11180474B2 (BRISTOL-MYERS SQUIBB COMPANY, priority 2016, dated 2021)
